{"source": "patent US7341721B2", "about": "(The Board of Trustees of the University of Arkansas, priority 2002, dated 2008)", "key": {"myeloma cell lines [1]": {"system": "myeloma cell lines", "details": "RPMI-8226 and U266; cited from earlier work"}, "myeloma cell lines [2]": {"system": "myeloma cell lines", "test": "Apoptosis assay (Annexin V/PI staining, TUNEL), myeloma cell lines", "assay_type": "cell-based, human", "details": "for protection from β2m-induced apoptosis / spontaneous apoptosis of myeloma cells: IL-6 20 ng/ml or IGF-I 50 ng/ml, ARK-RS and RPMI-8226; for protection from B2 anti-β2m antibody-induced apoptosis: cytokines added to myeloma cells", "protocol": "(§1) The fraction of apoptotic cells was determined by staining cells with Annexin V-fluorescein isothiocyanate (FITC) (Immunotech) and propidium iodide (PI) (Sigma) (Vermes, I., et al., J. Immunol. Methods, 184:39-51, 1995). […] 5 μl of Annexin V-FITC (BD PharMingen, San Diego, Calif.) were added and incubated for 30 minutes. After washing and re-suspension of the cells in the binding buffer, 5 μl of PI were added, and the cells were ready for analysis. Percentages of apoptotic cells are the sum of PI^−/Annexin V^+ (newly apoptotic) and PI^+/Annexin V^+ (already apoptotic) cell populations (Vermes, I., et al., J. Immunol. Methods, 184:39-51, 1995).\nA flow cytometry-based cell death detection kit (APO-BRDU) was purchased from BD PharMingen, and experiments were performed according to the manufacturer's protocol."}, "Jurkat cells": {"system": "Jurkat cells", "test": "Apoptosis in Jurkat cells", "assay_type": "cell-based", "details": "Z-VAD-FMK 100 μM; antibody 100 ng/ml, 18-hour culture", "protocol": "as §1\nA pan-caspase inhibitor, z-Val-Ala-Asp-fluoromethyl ketone (Z-VAD-FMK) or caspase I inhibitor V, was purchased from Calbiochem-Novabiochem. This peptide was dissolved in dimethylsulfoxide (DMSO, Sigma) and added to cell suspensions at a final concentration of 100 μM (final DMSO concentration of 0.25%).\nWhen the pan-caspase inhibitor Z-VAD-FMK was added to the culture, activation and processing of caspase-3 (data not shown), cleavage of PARP (FIG. 5B), and apoptosis (FIG. 5C) were inhibited."}, "caspase-3 and PARP": {"system": "caspase-3 and PARP", "test": "Western blot of caspase-3 activation and PARP cleavage in myeloma cells", "assay_type": "cell-based, human", "details": "Z-VAD-FMK 100 μM; ARK-RS and RPMI-8226", "description": "Cells were cultured with or without 40 μg/ml β2m for 48 hours, harvested, washed, and lysed with lysis buffer (50 mM Tris, pH 7.5, 140 mM NaCl, 5 mM EDTA, 5 mM NaN3, 1% Triton-X-100, 1% NP-40, 1× protease inhibitor cocktail). […] The membrane was stripped and reprobed with anti-β-actin antibody (Santa Cruz Biotechnology) to ensure equivalent protein loading. For detection of caspase-3 activation and cleavage of poly(ADP-ribose) polymerase (PARP), the membranes were immunoblotted with anti-caspase-3 antibody (Santa Cruz Biotechnology) or anti-PARP antibody (BD PharMingen). Secondary antibodies conjugated to horseradish peroxidase were used for detection, followed by enhanced chemiluminescence (Bio-Rad Laboratories, Hercules, Calif.) and autoradiography."}}, "data": [{"compound": "N[C@@H](Cc1ccc(N(CCCl)CCCl)cc1)C(=O)O", "note": "[melphalan]", "values": [{"measurement": "sensitivity of myeloma cell lines to melphalan", "setting": "myeloma cell lines [1]", "result": "sensitive"}]}, {"compound": "IGF-I: recombinant human IGF-I (R&D Systems), growth and survival factor for myeloma cells", "values": [{"measurement": "protection from β2m-induced apoptosis", "setting": "myeloma cell lines [2]", "result": "only IL-6 protected myeloma cells"}, {"measurement": "spontaneous apoptosis of myeloma cells", "setting": "myeloma cell lines [2]", "result": "reduced the percentage of cells undergoing spontaneous apoptosis"}, {"measurement": "protection from B2 anti-β2m antibody-induced apoptosis", "setting": "myeloma cell lines [2]", "result": "do not protect myeloma cells"}]}, {"compound": "IL-6: recombinant human IL-6 (R&D Systems), growth and survival factor for myeloma cells", "values": [{"measurement": "protection from β2m-induced apoptosis", "setting": "myeloma cell lines [2]", "result": "protected myeloma cells from β2m-induced apoptosis"}, {"measurement": "spontaneous apoptosis of myeloma cells", "setting": "myeloma cell lines [2]", "result": "reduced the percentage of cells undergoing spontaneous apoptosis"}, {"measurement": "protection from B2 anti-β2m antibody-induced apoptosis", "setting": "myeloma cell lines [2]", "result": "do not protect myeloma cells"}]}, {"compound": "z-Val-Ala-Asp-fluoromethyl ketone [Z-VAD-FMK]", "values": [{"measurement": "effect on anti-Fas antibody 7C11-induced apoptosis", "setting": "Jurkat cells", "result": "abrogated apoptosis"}, {"measurement": "effect on β2m-induced apoptosis", "setting": "myeloma cell lines [2]; Z-VAD-FMK 100 μM, RPMI-8226, β2m 40 μg/ml, 48-hour culture", "result": "inhibited"}, {"measurement": "effect on β2m-induced caspase-3 activation and PARP cleavage", "setting": "caspase-3 and PARP", "result": "inhibited"}]}]}
